Laboratory results as given in US20050171358A1 (priority 2002, published 2005).

Tests used:
Pyricularia oryzae = format: in vivo; settings: 200 ppm spray on rice (Koshihikari, 3 leaf stage), inoculated next day; lesion numbers on third leaves after 7 days in green house, graded by Table 5
[1] = tested on: Colletotrichum lagenarium; settings: 200 ppm spray on cucumber (3 leaf stage), inoculated next day; lesion numbers on first and second leaves after 7 days in green house, graded by Table 5

SMILES: CC(C)Cc1cc(CNC(=O)c2ccc(Cl)cc2Cl)on1 [III-253, N-[(3-isobutyl-5-isoxazolyl)methyl]-2,4-dichlorobenzamide]
- Evaluation (effect for rice blast) (Pyricularia oryzae): 5 (0)
- Evaluation (effect for cucumber anthracnose) [1]: 5 (0)

SMILES: CC(C)Cc1cc(CNC(=O)c2ccc(Cl)c(Cl)c2)on1 [III-255, N-[(3-isobutyl-5-isoxazolyl)methyl]-3,4-dichlorobenzamide]
- Evaluation (effect for rice blast) (Pyricularia oryzae): 4 (1˜5)
- Evaluation (effect for cucumber anthracnose) [1]: 4 (1˜5)

SMILES: CC(C)Cc1cc(CNC(=O)c2ccc(Br)cc2)on1 [III-256, N-[(3-isobutyl-5-isoxazolyl)methyl]-4-bromobenzamide]
- Evaluation (effect for rice blast) (Pyricularia oryzae): 5 (0)
- Evaluation (effect for cucumber anthracnose) [1]: 5 (0)

SMILES: CC(C)Cc1cc(CNC(=O)c2ccc(C(F)(F)F)cc2)on1 [III-257, N-[(3-isobutyl-5-isoxazolyl)methyl]-4-trifluoromethylbenzamide]
- Evaluation (effect for rice blast) (Pyricularia oryzae): 3 (6˜10)
- Evaluation (effect for cucumber anthracnose) [1]: 4 (1˜5)

SMILES: CCc1ccc(C(=O)NCc2cc(CC(C)C)no2)cc1 [III-258, N-[(3-isobutyl-5-isoxazolyl)methyl]-4-ethylbenzamide]
- Evaluation (effect for rice blast) (Pyricularia oryzae): 5 (0)
- Evaluation (effect for cucumber anthracnose) [1]: 4 (1˜5)

SMILES: CC(C)Cc1cc(CNC(=O)c2ccc3ccccc3c2)on1 [III-259, N-[(3-isobutyl-5-isoxazolyl)methyl]-2-naphthalenecarboxamide]
- Evaluation (effect for rice blast) (Pyricularia oryzae): 5 (0)
- Evaluation (effect for cucumber anthracnose) [1]: 4 (1˜5)

SMILES: CC(C)Cc1cc(CNC(=O)c2cccc3ccccc23)on1 [III-262, N-[(3-isobutyl-5-isoxazolyl)methyl]-1-naphthalenecarboxamide]
- Evaluation (effect for rice blast) (Pyricularia oryzae): 5 (0)
- Evaluation (effect for cucumber anthracnose) [1]: 5 (0)

SMILES: CCCc1cc(CNC(=O)c2ccc(Cl)cc2)on1 [III-263, N-[(3-propyl-5-isoxazolyl)methyl]-4-chlorobenzamide]
- Evaluation (effect for rice blast) (Pyricularia oryzae): 5 (0)
- Evaluation (effect for cucumber anthracnose) [1]: 5 (0)

SMILES: CCCc1cc(CNC(=O)c2ccc(Br)cc2)on1 [III-264, N-[(3-propyl-5-isoxazolyl)methyl]-4-bromobenzamide]
- Evaluation (effect for rice blast) (Pyricularia oryzae): 5 (0)
- Evaluation (effect for cucumber anthracnose) [1]: 5 (0)

SMILES: CCCc1cc(CNC(=O)c2ccc(Cl)cc2Cl)on1 [III-265, N-[(3-propyl-5-isoxazolyl)methyl]-2,4-dichlorobenzamide]
- Evaluation (effect for rice blast) (Pyricularia oryzae): 5 (0)
- Evaluation (effect for cucumber anthracnose) [1]: 4 (1˜5)

SMILES: O=C(NCc1cc(CBr)no1)c1ccc(Cl)cc1Cl [III-275, N-[(3-bromomethyl-5-isoxazolyl)methyl]-2,4-dichlorobenzamide]
- Evaluation (effect for rice blast) (Pyricularia oryzae): 2 (11˜20)
- Evaluation (effect for cucumber anthracnose) [1]: 2 (11˜20)

SMILES: O=C(NCc1cc(Cc2ccccc2)no1)c1ccccc1 [IV-1, N-[(3-benzyl-5-isoxazolyl)methyl]benzamide]
- Evaluation (effect for rice blast) (Pyricularia oryzae): 5 (0)
- Evaluation (effect for cucumber anthracnose) [1]: 5 (0)

SMILES: COc1ccc(C(=O)NCc2cc(Cc3ccccc3)no2)cc1 [IV-2, N-[(3-benzyl-5-isoxazolyl)methyl]-4-methoxybenzamide]
- Evaluation (effect for rice blast) (Pyricularia oryzae): 5 (0)
- Evaluation (effect for cucumber anthracnose) [1]: 5 (0)

SMILES: Cc1ccc(C(=O)NCc2cc(Cc3ccccc3)no2)cc1 [IV-3, N-[(3-benzyl-5-isoxazolyl)methyl]-4-methylbenzamide]
- Evaluation (effect for rice blast) (Pyricularia oryzae): 5 (0)
- Evaluation (effect for cucumber anthracnose) [1]: 5 (0)

SMILES: O=C(NCc1cc(Cc2ccccc2)no1)C1CCCCC1 [IV-4, (3-benzyl-5-isoxazolyl)methylaminocarbonylcyclohexane]
- Evaluation (effect for rice blast) (Pyricularia oryzae): 4 (1˜5)
- Evaluation (effect for cucumber anthracnose) [1]: 4 (1˜5)

SMILES: COc1ccc(Cc2cc(CNC(=O)c3ccc(OC)cc3)on2)cc1 [IV-9, N-{[3-(4-methoxybenzyl)-5-isoxazolyl]methyl}-4-methoxybenzamide]
- Evaluation (effect for rice blast) (Pyricularia oryzae): 5 (0)
- Evaluation (effect for cucumber anthracnose) [1]: 5 (0)

SMILES: Cc1ccc(Cc2cc(CNC(=O)c3ccc(C)cc3)on2)cc1 [IV-10, N-{[3-(4-methylbenzyl)-5-isoxazolyl]methyl}-4-methylbenzamide]
- Evaluation (effect for rice blast) (Pyricularia oryzae): 5 (0)
- Evaluation (effect for cucumber anthracnose) [1]: 5 (0)

SMILES: Cc1ccc(C(=O)NCc2cc(Cc3cccc(C)c3)no2)cc1 [IV-11, N-{[3-(3-methylbenzyl)-5-isoxazolyl]methyl}-4-methylbenzamide]
- Evaluation (effect for rice blast) (Pyricularia oryzae): 5 (0)
- Evaluation (effect for cucumber anthracnose) [1]: 5 (0)

SMILES: Cc1ccc(C(=O)NCc2cc(Cc3ccccc3C)no2)cc1 [IV-12, N-{[3-(2-methylbenzyl)-5-isoxazolyl]methyl}-4-methyl benzamide]
- Evaluation (effect for rice blast) (Pyricularia oryzae): 5 (0)
- Evaluation (effect for cucumber anthracnose) [1]: 5 (0)

SMILES: CC(c1ccccc1)c1cc(CNC(=O)c2ccccc2)on1 (centres unmarked) [IV-29, N-{[3-(1-phenylethyl)-5-isoxazolyl]methyl}benzamide]
- Evaluation (effect for rice blast) (Pyricularia oryzae): 3 (6˜10)
- Evaluation (effect for cucumber anthracnose) [1]: 3 (6˜10)

SMILES: O=C(NCc1cc(CCc2ccccc2)no1)c1ccccc1 [IV-33, N-{[3-(2-phenylethyl)-5-isoxazolyl]methyl}benzamide]
- Evaluation (effect for rice blast) (Pyricularia oryzae): 5 (0)
- Evaluation (effect for cucumber anthracnose) [1]: 5 (0)

SMILES: COc1ccc(C(=O)NCc2cc(CCc3ccccc3)no2)cc1 [IV-34, N-{[3-(2-phenylethyl)-5-isoxazolyl]methyl}-4-methoxybenzamide]
- Evaluation (effect for rice blast) (Pyricularia oryzae): 5 (0)
- Evaluation (effect for cucumber anthracnose) [1]: 5 (0)

SMILES: Cc1ccc(C(=O)NCc2cc(CCc3ccccc3)no2)cc1 [IV-35, N-{[3-(2-phenylethyl)-5-isoxazolyl]methyl}-4-methylbenzamide]
- Evaluation (effect for rice blast) (Pyricularia oryzae): 5 (0)
- Evaluation (effect for cucumber anthracnose) [1]: 5 (0)

SMILES: Cc1ccc(C(=O)NCc2cc(CSc3ccccc3)no2)cc1 [IV-40, N-[(3-phenylthiomethyl-5-isoxazolyl)methyl]-4-methylbenzamide]
- Evaluation (effect for rice blast) (Pyricularia oryzae): 3 (6˜10)
- Evaluation (effect for cucumber anthracnose) [1]: 2 (11˜20)

SMILES: O=C(NCc1cc(COc2ccccc2)no1)c1ccccc1 [IV-44, N-[(3-phenoxymethyl-5-isoxazolyl)methyl]benzamide]
- Evaluation (effect for rice blast) (Pyricularia oryzae): 5 (0)
- Evaluation (effect for cucumber anthracnose) [1]: 5 (0)

SMILES: COc1ccc(C(=O)NCc2cc(COc3ccccc3)no2)cc1 [IV-45, N-[(3-phenyloxymethyl-5-isoxazolyl)methyl]-4-methoxy benzamide]
- Evaluation (effect for rice blast) (Pyricularia oryzae): 5 (0)
- Evaluation (effect for cucumber anthracnose) [1]: 5 (0)

SMILES: Cc1ccc(C(=O)NCc2cc(COc3ccccc3)no2)cc1 [IV-46, N-[(3-phenoxymethyl-5-isoxazolyl)methyl]-4-methylbenzamide]
- Evaluation (effect for rice blast) (Pyricularia oryzae): 5 (0)
- Evaluation (effect for cucumber anthracnose) [1]: 5 (0)

SMILES: COc1ccc(C(=O)NCc2cc(COc3ccccc3C)no2)cc1 [IV-47, N-{[3-(2-methylphenyl)oxymethyl-5-isoxazolyl]methyl}-4-methoxy benzamide]
- Evaluation (effect for rice blast) (Pyricularia oryzae): 5 (0)
- Evaluation (effect for cucumber anthracnose) [1]: 5 (0)

SMILES: COc1ccc(C(=O)NCc2cc(COc3cccc(C)c3)no2)cc1 [IV-48, N-{[3-(3-methylphenyl)oxymethyl-5-isoxazolyl]methyl}-4-methoxybenzamide]
- Evaluation (effect for rice blast) (Pyricularia oryzae): 3 (6˜10)
- Evaluation (effect for cucumber anthracnose) [1]: 2 (11˜20)

SMILES: Cc1ccc(C(=O)NCc2cc(COc3cccc(C)c3)no2)cc1 [IV-49, N-{[3-(3-methylphenyl)oxymethyl-5-isoxazolyl]methyl}-4-methylbenzamide]
- Evaluation (effect for rice blast) (Pyricularia oryzae): 2 (11˜20)
- Evaluation (effect for cucumber anthracnose) [1]: 2 (11˜20)

SMILES: COc1ccc(C(=O)NCc2cc(COc3ccc(C)cc3)no2)cc1 [IV-50, N-{[3-(4-methylphenyl)oxymethyl-5-isoxazolyl]methyl}-4-methoxybenzamide]
- Evaluation (effect for rice blast) (Pyricularia oryzae): 5 (0)
- Evaluation (effect for cucumber anthracnose) [1]: 4 (1˜5)

SMILES: COc1ccc(C(=O)NCc2cc(COc3cccc(C#N)c3)no2)cc1 [IV-52, N-{[3-(3-cyanophenyl)oxymethyl-5-isoxazolyl]methyl}-4-methoxybenzamide]
- Evaluation (effect for rice blast) (Pyricularia oryzae): 3 (6˜10)
- Evaluation (effect for cucumber anthracnose) [1]: 2 (11˜20)

SMILES: COc1ccc(C(=O)NCc2cc(COc3ccc(C#N)cc3)no2)cc1 [IV-53, N-([3-(4-cyanophenyl)oxymethyl-5-isoxazolyl]methyl}-4-methoxybenzamide]
- Evaluation (effect for rice blast) (Pyricularia oryzae): 5 (0)
- Evaluation (effect for cucumber anthracnose) [1]: 5 (0)

SMILES: COc1ccc(C(=O)NCc2cc(COc3ccccc3OC)no2)cc1 [IV-54, N-{[3-(2-methoxyphenyl)oxymethyl-5-isoxazolyl]methyl}-4-methoxybenzamide]
- Evaluation (effect for rice blast) (Pyricularia oryzae): 3 (6˜10)
- Evaluation (effect for cucumber anthracnose) [1]: 4 (1˜5)

SMILES: COc1ccc(C(=O)NCc2cc(COc3cccc(OC)c3)no2)cc1 [IV-55, N-{[3-(3-methoxyphenyl)oxymethyl-5-isoxazolyl]methyl}-4-methoxybenzamide]
- Evaluation (effect for rice blast) (Pyricularia oryzae): 4 (1˜5)
- Evaluation (effect for cucumber anthracnose) [1]: 4 (1˜5)

SMILES: COc1ccc(OCc2cc(CNC(=O)c3ccc(OC)cc3)on2)cc1 [IV-56, N-{[3-(4-methoxyphenyl)oxymethyl-5-isoxazolyl]methyl}-4-methoxybenzamide]
- Evaluation (effect for rice blast) (Pyricularia oryzae): 3 (6˜10)
- Evaluation (effect for cucumber anthracnose) [1]: 2 (11˜20)

SMILES: COc1ccc(C(=O)NCc2cc(COc3ccccc3F)no2)cc1 [IV-57]
- Evaluation (effect for rice blast) (Pyricularia oryzae): 5 (0)
- Evaluation (effect for cucumber anthracnose) [1]: 5 (0)

SMILES: COc1ccc(C(=O)NCc2cc(COc3cccc(F)c3)no2)cc1 [IV-58, N-{[3-(3-fluorophenyl)oxymethyl-5-isoxazolyl]methyl}-4-methoxybenzamide]
- Evaluation (effect for rice blast) (Pyricularia oryzae): 5 (0)
- Evaluation (effect for cucumber anthracnose) [1]: 5 (0)

SMILES: COc1ccc(C(=O)NCc2cc(COc3ccc(F)cc3)no2)cc1 [IV-59, N-{[3-(4-fluorophenyl)oxymethyl-5-isoxazolyl]methyl}-4-methoxybenzamide]
- Evaluation (effect for rice blast) (Pyricularia oryzae): 5 (0)
- Evaluation (effect for cucumber anthracnose) [1]: 5 (0)

SMILES: COc1ccc(C(=O)NCc2cc(COc3ccc([N+](=O)[O-])cc3)no2)cc1 [IV-60, N-{[3-(4-nitrophenyl)oxymethyl-5-isoxazolyl]methyl}-4-methoxybenzamide]
- Evaluation (effect for rice blast) (Pyricularia oryzae): 5 (0)
- Evaluation (effect for cucumber anthracnose) [1]: 5 (0)
